Patent US7479493B2, “Substituted benzyl amine compounds” (Janssen Pharmaceutica N.V., priority 2006, dated 2009)

Key:
cloned human H3 receptor = cloned human H3 receptor (Homo sapiens, UniProt Q9Y5N1); test: H3 Receptor Binding; conditions: cloned human H3 receptor stably expressed in SK-N-MC cells
Rat SERT = Rat SERT (Rattus norvegicus, UniProt P31652); test: biochemical
Sequence of Rat SERT (P31652 whole entry): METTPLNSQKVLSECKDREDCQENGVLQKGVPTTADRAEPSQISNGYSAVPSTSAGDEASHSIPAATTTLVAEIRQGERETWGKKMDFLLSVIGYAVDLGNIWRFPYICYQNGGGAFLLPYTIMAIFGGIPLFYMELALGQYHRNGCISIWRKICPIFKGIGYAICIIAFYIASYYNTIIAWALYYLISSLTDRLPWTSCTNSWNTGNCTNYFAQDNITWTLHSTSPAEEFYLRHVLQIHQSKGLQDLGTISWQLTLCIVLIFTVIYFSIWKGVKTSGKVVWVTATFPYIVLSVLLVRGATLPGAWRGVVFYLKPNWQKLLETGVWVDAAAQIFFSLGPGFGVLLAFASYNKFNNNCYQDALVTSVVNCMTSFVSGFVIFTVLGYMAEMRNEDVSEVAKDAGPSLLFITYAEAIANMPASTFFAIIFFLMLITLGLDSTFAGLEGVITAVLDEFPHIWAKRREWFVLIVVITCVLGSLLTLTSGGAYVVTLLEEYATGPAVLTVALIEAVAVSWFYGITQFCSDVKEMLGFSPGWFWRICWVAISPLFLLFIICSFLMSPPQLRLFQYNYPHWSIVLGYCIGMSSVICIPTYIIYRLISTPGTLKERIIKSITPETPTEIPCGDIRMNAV
Protocol: The supernatant was removed and re-centrifuged at 15,000 rpm for 30 min. […] Membranes were incubated with 0.6 nM [^3H]-Citalopram plus/minus test compounds for 60 min at 25° C. and harvested by rapid filtration over GF/C glass fiber filters (pretreated with 0.3% polyethylenimine) followed by four washes with ice-cold buffer. Nonspecific binding was defined in the presence of 100 μM fluoxetine.

Sequence of cloned human H3 receptor (Q9Y5N1 whole entry): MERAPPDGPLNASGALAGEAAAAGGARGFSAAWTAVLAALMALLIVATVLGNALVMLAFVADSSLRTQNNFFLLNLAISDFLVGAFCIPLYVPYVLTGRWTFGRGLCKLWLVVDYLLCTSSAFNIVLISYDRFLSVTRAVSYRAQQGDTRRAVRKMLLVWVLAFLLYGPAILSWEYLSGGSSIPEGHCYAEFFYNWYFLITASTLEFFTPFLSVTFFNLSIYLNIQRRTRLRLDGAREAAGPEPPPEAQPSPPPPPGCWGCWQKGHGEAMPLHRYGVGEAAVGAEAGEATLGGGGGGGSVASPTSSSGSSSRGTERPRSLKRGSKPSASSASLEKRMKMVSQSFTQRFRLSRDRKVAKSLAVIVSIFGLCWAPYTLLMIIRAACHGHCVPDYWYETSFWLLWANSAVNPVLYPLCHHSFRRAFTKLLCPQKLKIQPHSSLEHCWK

SMILES | Ki (cloned human H3 receptor) | Ki (Rat SERT)
CNCc1cc(C(=O)N2CCN(C3CC3)CC2)ccc1Oc1ccc(C)nc1 [Example 20, (4-Cyclopropyl-piperazin-1-yl)-[3-methylaminomethyl-4-(6-methyl-pyridin-3-yloxy)-phenyl]-methanone] | 59 nM | 190 nM
CNCc1cc(C(=O)N2CCN(C3CC3)CC2)ccc1Oc1ccc(F)c(Cl)c1 [Example 21, [4-(3-Chloro-4-fluoro-phenoxy)-3-methylaminomethyl-phenyl]-(4-cyclopropyl-piperazin-1-yl)-methanone] | 32 nM | 19 nM
CNCc1cc(C(=O)N2CCN(C3CC3)CC2)ccc1Oc1ccc(Cl)cc1F [Example 22, [4-(4-Chloro-2-fluoro-phenoxy)-3-methylaminomethyl-phenyl]-(4-cyclopropyl-piperazin-1-yl)-methanone] | 18 nM | 21 nM
CNCc1cc(C(=O)N2CCC(N3CCOCC3)CC2)ccc1Oc1ccc(SC)cc1 [Example 23, [3-Methylaminomethyl-4-(4-methylsulfanyl-phenoxy)-phenyl]-(4-morpholin-4-yl-piperidin-1-yl)-methanone] | 50 nM | 3 nM
CNCc1cc(C(=O)N2CCN(C3CC3)CC2)ccc1Oc1cccc(Cl)c1F [Example 24, [4-(3-Chloro-2-fluoro-phenoxy)-3-methylaminomethyl-phenyl]-(4-cyclopropyl-piperazin-1-yl)-methanone] | 31 nM | 130 nM
CNCc1cc(C(=O)N2CC[C@H](N(C)C)C2)ccc1Oc1ccc(SC)cc1 [Example 25, (S)-(3-Dimethylamino-pyrrolidin-1-yl)-[3-methylaminomethyl-4-(4-methylsulfanyl-phenoxy)-phenyl]-methanone] | 7 nM | 0.9 nM
CNCc1cc(C(=O)NCCN(C)C)ccc1Oc1cccc(Cl)c1 [Example 26, 4-(3-Chloro-phenoxy)-N-(2-dimethylamino-ethyl)-3-methylaminomethyl-benzamide] | 100 nM | 3 nM
CNCc1cc(C(=O)NCCCN(C)C)ccc1Oc1cccc(Cl)c1 [Example 27, 4-(3-Chloro-phenoxy)-N-(3-dimethylamino-propyl)-3-methylaminomethyl-benzamide] | 48 nM | 0.8 nM
CNCc1cc(C(=O)N2CCN(C3CC3)CC2)ccc1Sc1ccc(Cl)cc1 [Example 28, [4-(4-Chloro-phenylsulfanyl)-3-methylaminomethyl-phenyl]-(4-cyclopropyl-piperazin-1-yl)-methanone] | 150 nM | –
CNCc1cc(C(=O)N2CCN(C3CC3)CC2)ccc1Sc1ccccn1 [Example 29, (4-Cyclopropyl-piperazin-1-yl)-[3-methylaminomethyl-4-(pyridin-2-ylsulfanyl)-phenyl]-methanone] | 170 nM | –
CN(C)C1CCN(C(=O)c2ccc(CNC3CC3)c(Oc3cccnc3)c2)C1 (stereo not shown) [Example 32, [4-Cyclopropylaminomethyl-3-(pyridin-3-yloxy)-phenyl]-(3-dimethylamino-pyrrolidin-1-yl)-methanone] | 26 nM | 6000 nM
CNCc1ccc(C(=O)N2CCN(C(C)C)CC2)cc1Oc1ccc(Cl)c(Cl)c1 [Example 37, [3-(3,4-Dichloro-phenoxy)-4-methylaminomethyl-phenyl]-(4-isopropyl-piperazin-1-yl)-methanone] | 1 nM | 2 nM
CNCc1ccc(C(=O)N2CCN(C(C)C)CC2)cc1Oc1cccc(Cl)c1 [Example 38, [3-(3-Chloro-phenoxy)-4-methylaminomethyl-phenyl]-(4-isopropyl-piperazin-1-yl)-methanone] | 4 nM | 130 nM
CNCc1ccc(C(=O)N2CCN(C3CC3)CC2)cc1Oc1ccc(Cl)c(Cl)c1 [Example 39, (4-Cyclopropyl-piperazin-1-yl)-[3-(3,4-dichloro-phenoxy)-4-methylaminomethyl-phenyl]-methanone] | 15 nM | 17 nM
CNCc1cc(N2CCN(C(C)C)CC2)ccc1Oc1ccc(SC)cc1 [Example 40, [5-(4-Isopropyl-piperazin-1-yl)-2-(4-methylsulfanyl-phenoxy)-benzyl]-methyl-amine] | 7 nM | 0.1 nM
CNCc1cc(N2CCN(C)CC2)ccc1Oc1ccc(SC)cc1 [Example 41, Methyl-[5-(4-methyl-piperazin-1-yl)-2-(4-methylsulfanyl-phenoxy)-benzyl]-amine] | 210 nM | 0.4 nM
CNCc1cc(N2CCN(C3CCC3)CC2)ccc1Oc1ccc(SC)cc1 [Example 42, [5-(4-Cyclobutyl-piperazin-1-yl)-2-(4-methylsulfanyl-phenoxy)-benzyl]-methyl-amine] | 6 nM | 0.3 nM
CNCc1cc(N2CCN(c3ccncc3)CC2)ccc1Oc1ccc(SC)cc1 [Example 43, Methyl-[2-(4-methylsulfanyl-phenoxy)-5-(4-pyridin-4-yl-piperazin-1-yl)-benzyl]-amine] | 110 nM | 0.7 nM
CNCc1cc(N2CCN(CCF)CC2)ccc1Oc1ccc(SC)cc1 [Example 44, [5-[4-(2-Fluoro-ethyl)-piperazin-1-yl]-2-(4-methylsulfanyl-phenoxy)-benzyl]-methyl-amine] | 160 nM | 0.5 nM

SMILES | Ki (cloned human H3 receptor) | Ki (Rat SERT)
CNCc1cc(N2CCN(C3CC3)CC2)ccc1Oc1ccc(SC)cc1 [Example 45, [5-(4-Cyclopropyl-piperazin-1-yl)-2-(4-methylsulfanyl-phenoxy)-benzyl]-methyl-amine] | 76 nM | 1 nM
CNCc1cc(N2CCN(C3CC3)CC2)ccc1Oc1ccc(Cl)c(Cl)c1 [Example 46, [5-(4-Cyclopropyl-piperazin-1-yl)-2-(3,4-dichloro-phenoxy)-benzyl]-methyl-amine] | 49 nM | 4 nM
CNCc1cc(N2CCN(C(C)C)CC2)ccc1Oc1ccc(Cl)c(Cl)c1 [Example 47, [2-(3,4-Dichloro-phenoxy)-5-(4-isopropyl-piperazin-1-yl)-benzyl]-methyl-amine] | 20 nM | 2 nM
CNCc1cc(N2CCNCC2=O)ccc1Oc1ccc(SC)cc1 [Example 48, 1-[3-Methylaminomethyl-4-(4-methylsulfanyl-phenoxy)-phenyl]-piperazin-2-one] | 5500 nM | 0.4 nM
CNCc1cc(N2CCN(C(C)C)CC2=O)ccc1Oc1ccc(SC)cc1 [Example 49, 4-Isopropyl-1-[3-methylaminomethyl-4-(4-methylsulfanyl-phenoxy)-phenyl]-piperazin-2-one] | 400 nM | 2 nM
CNCc1cc(N2CCN(C(C)C)CC2=O)ccc1Oc1ccc(Cl)c(Cl)c1 [Example 50, 1-[4-(3,4-Dichloro-phenoxy)-3-methylaminomethyl-phenyl]-4-isopropyl-piperazin-2-one] | 150 nM | 7 nM
CNCc1cc(N2CCC(N3CCOCC3)CC2)ccc1Oc1ccc(SC)cc1 [Example 51, Methyl-[2-(4-methylsulfanyl-phenoxy)-5-(4-morpholin-4-yl-piperidin-1-yl)-benzyl]-amine] | 28 nM | 2 nM
CNCc1cc(N2CCCN(C(C)C)CC2)ccc1Oc1ccc(SC)cc1 [Example 52, [5-(4-Isopropyl-[1,4]diazepan-1-yl)-2-(4-methylsulfanyl-phenoxy)-benzyl]-methyl-amine] | 8 nM | 1 nM
CNCc1cc(N2CCCN(C3CC3)CC2)ccc1Oc1ccc(SC)cc1 [Example 53, [5-(4-Cyclopropyl-[1,4]diazepan-1-yl)-2-(4-methylsulfanyl-phenoxy)-benzyl]-methyl-amine] | 28 nM | 6 nM
COCCN(CCOC)Cc1ccc(C(=O)N2CCN(C3CC3)CC2)cc1Oc1ccc(C)nc1C [Example 82, [4-{[Bis-(2-methoxy-ethyl)-amino]-methyl}-3-(2,6-dimethyl-pyridin-3-yloxy)-phenyl]-(4-cyclopropyl-piperazin-1-yl)-methanone] | 200 nM | –
Cc1ccc(Oc2cc(C(=O)N3CCN(C(C)C)CC3)ccc2CN2CCOCC2)c(C)n1 [Example 83, [3-(2,6-Dimethyl-pyridin-3-yloxy)-4-morpholin-4-ylmethyl-phenyl]-(4-isopropyl-piperazin-1-yl)-methanone] | 21 nM | –
CN(C)Cc1ccc(C(=O)N2CCCCC2)cc1Oc1ccccc1 [Example 84, (4-Dimethylaminomethyl-3-phenoxy-phenyl)-piperidin-1-yl-methanone] | 4500 nM | –
COCCN(CCOC)Cc1ccc(C(=O)N2CCN(C(C)C)CC2)cc1Oc1ccccc1 [Example 85, (4-{[Bis-(2-methoxy-ethyl)-amino]-methyl}-3-phenoxy-phenyl)-(4-isopropyl-piperazin-1-yl)-methanone] | 12 nM | –
COCCN(CCOC)Cc1ccc(C(=O)N2CCC(N(C)C)CC2)cc1Oc1cccnc1 [Example 86, [4-{[Bis-(2-methoxy-ethyl)-amino]-methyl}-3-(pyridin-3-yloxy)-phenyl]-(4-dimethylamino-piperidin-1-yl)-methanone] | 200 nM | –
CC(C)N1CCN(Cc2ccc(C(=O)N3CCCCC3)cc2Oc2ccccc2)CC1 [Example 87, [4-(4-Isopropyl-piperazin-1-ylmethyl)-3-phenoxy-phenyl]-piperidin-1-yl-methanone] | 280 nM | –
CC(C)N1CCN(Cc2ccc(C(=O)N3CCCCC3)cc2Oc2cccnc2)CC1 [Example 88, [4-(4-Isopropyl-piperazin-1-ylmethyl)-3-(pyridin-3-yloxy)-phenyl]-piperidin-1-yl-methanone] | 220 nM | –
CNCCNC(=O)c1ccc(CN(C)C)c(Oc2cccnc2)c1 [Example 89, 4-Dimethylaminomethyl-N-(2-methylamino-ethyl)-3-(pyridin-3-yloxy)-benzamide] | 1900 nM | –
CN(C)Cc1ccc(C(=O)NCCN(C)C2CC2)cc1Oc1cccnc1 [Example 90, N-[2-(Cyclopropyl-methyl-amino)-ethyl]-4-dimethylaminomethyl-3-(pyridin-3-yloxy)-benzamide] | 45 nM | –
COc1cccc(Oc2ccc(C(=O)N3CCN(C(C)C)CC3)cc2CN(C)C(=O)OC(C)(C)C)c1 [Example 91, [5-(4-Isopropyl-piperazine-1-carbonyl)-2-(3-methoxy-phenoxy)-benzyl]-methyl-carbamic acid tert-butyl ester] | 58 nM | –
